Measurements published in ChEMBL document CHEMBL2311262, “Structure activity relationship studies of tricyclic bispyran sulfone γ-secretase inhibitors” (Bioorg Med Chem Lett, 2013).

Tests used:
[1] = target: Gamma-secretase; assay: Inhibition of gamma secretase-mediated amyloid beta42 production in HEK293 cells transfected with human APPSOW and APPLON after 5 hrs by sandwich immunoassay; assay type: cell-based
[2] = target: Gamma-secretase; assay: Inhibition of gamma secretase-mediated amyloid beta40 production in HEK293 cells transfected with human APPSOW and APPLON after 5 hrs by sandwich immunoassay; assay type: cell-based
[3] = target: Gamma-secretase; assay: Inhibition of gamma secretase-mediated amyloid beta40 production in HEK293 cell membranes transfected with human APPSOW and APPLON mutant after 5 hrs by sandwich immunoassay; assay type: cell-based
[4] = tested on: Mus musculus; assay: Inhibition of gamma secretase in B6C3F1 mouse assessed as […] in plasma amyloid beta40 production at 10 mg/kg, po measured at 3 hrs; assay type: functional
[5] = Ratio of drug level in brain to plasma in rat at 6 hrs; assay type: ADME; settings: read-out: BPR
[6] = Volume of distribution at steady state in dog at 2.5 mg/kg, iv; assay type: ADME, organism-based, Canis lupus familiaris; design: dose 2.5 mg/kg, route intravenous; settings: in vivo, read-out: Vdss
[7] = Volume of distribution at steady state in rat at 5 mg/kg, iv; assay type: ADME, organism-based; design: dose 5 mg/kg, route intravenous; settings: in vivo, read-out: Vdss
[8] = Volume of distribution at steady state in monkey at 2.5 mg/kg, iv; assay type: ADME, organism-based, Macaca mulatta; design: dose 2.5 mg/kg, route intravenous; settings: rhesus monkey, in vivo, read-out: Vdss
[9] = Clearance in monkey at 2.5 mg/kg, iv; assay type: ADME, organism-based, Macaca mulatta; design: dose 2.5 mg/kg, route intravenous; settings: rhesus monkey, in vivo
[10] = Clearance in dog at 2.5 mg/kg, iv; assay type: ADME, organism-based, Canis lupus familiaris; design: dose 2.5 mg/kg, route intravenous; settings: in vivo
[11] = Clearance in rat at 5 mg/kg, iv; assay type: ADME, organism-based; design: dose 5 mg/kg, route intravenous; settings: in vivo
[12] = Oral bioavailability in dog at 10 mg/kg; assay type: ADME, organism-based, Canis lupus familiaris; settings: in vivo
[13] = Oral bioavailability in rat at 10 mg/kg; assay type: ADME, organism-based; settings: in vivo
[14] = Oral bioavailability in monkey at 10 mg/kg; assay type: ADME, organism-based, Macaca mulatta; settings: rhesus monkey, in vivo
[15] = Half life in dog at 10 mg/kg, po; assay type: ADME, organism-based, Canis lupus familiaris; design: dose 10 mg/kg, route oral; settings: in vivo
[16] = Half life in monkey at 10 mg/kg, po; assay type: ADME, organism-based, Macaca mulatta; design: dose 10 mg/kg, route oral; settings: rhesus monkey, in vivo
[17] = Half life in rat at 10 mg/kg, po; assay type: ADME, organism-based; design: dose 10 mg/kg, route oral; settings: in vivo
[18] = Tmax in dog at 10 mg/kg, po; assay type: ADME, organism-based, Canis lupus familiaris; design: dose 10 mg/kg, route oral; settings: in vivo
[19] = Tmax in monkey at 10 mg/kg, po; assay type: ADME, organism-based, Macaca mulatta; design: dose 10 mg/kg, route oral; settings: rhesus monkey, in vivo
[20] = Tmax in rat at 10 mg/kg, po; assay type: ADME, organism-based; design: dose 10 mg/kg, route oral; settings: in vivo
[21] = Cmax in dog at 10 mg/kg, po; assay type: ADME, organism-based, Canis lupus familiaris; design: dose 10 mg/kg, route oral; settings: in vivo
[22] = Cmax in rat at 10 mg/kg, po; assay type: ADME, organism-based; design: dose 10 mg/kg, route oral; settings: in vivo
[23] = Cmax in monkey at 10 mg/kg, po; assay type: ADME, organism-based, Macaca mulatta; design: dose 10 mg/kg, route oral; settings: rhesus monkey, in vivo
[24] = AUC (0 to infinity) in dog at 10 mg/kg, po; assay type: ADME, organism-based, Canis lupus familiaris; design: time infinity, dose 10 mg/kg, route oral; settings: plasma
[25] = AUC (0 to infinity) in rat at 10 mg/kg, po; assay type: ADME, organism-based; design: time infinity, dose 10 mg/kg, route oral; settings: plasma
[26] = AUC (0 to infinity) in monkey at 10 mg/kg, po; assay type: ADME, organism-based, Macaca mulatta; design: time infinity, dose 10 mg/kg, route oral; settings: rhesus monkey, plasma
[27] = Inhibition of CYP450 (unknown origin); assay type: ADME, Homo sapiens
[28] = target: hERG (KCNH2) (Homo sapiens, UniProt Q12809); assay: Inhibition of human ERG at 10 uM by voltage clamp assay
[29] = target: Gamma-secretase; assay: Inhibition of gamma secretase-mediated notch cleavage in HEK293 cells expressing human notch protein with truncated extracellular EGF repeat domain by sandwich immunoassay; assay type: cell-based
[30] = tested on: Rattus norvegicus; assay: Inhibition of gamma secretase in po dosed CD rat assessed as lowering of CSF amyloid beta40 production measured at 3 hrs; assay type: functional
[31] = tested on: Rattus norvegicus; assay: Inhibition of gamma secretase in po dosed CD rat assessed as lowering of cortex amyloid beta40 production measured at 3 hrs; assay type: functional
[32] = tested on: Mus musculus; assay: Inhibition of gamma secretase in po dosed B6C3F1 mouse assessed as lowering of plasma amyloid beta40 production measured at 3 hrs; assay type: functional
[33] = tested on: Mus musculus; assay: Inhibition of gamma secretase in po dosed B6C3F1 mouse assessed as lowering of cortex amyloid beta40 production measured at 3 hrs; assay type: functional
[34] = tested on: Rattus norvegicus; assay: Inhibition of gamma secretase in po dosed CD rat assessed as lowering of plasma amyloid beta40 production measured at 3 hrs; assay type: functional
[35] = species: Homo sapiens; assay: Selectivity ratio of inhibition of PS2 (unknown origin) to inhibition of PS1 (unknown origin)

hERG (KCNH2), sequence (Q12809 whole entry, the tested form may be a part): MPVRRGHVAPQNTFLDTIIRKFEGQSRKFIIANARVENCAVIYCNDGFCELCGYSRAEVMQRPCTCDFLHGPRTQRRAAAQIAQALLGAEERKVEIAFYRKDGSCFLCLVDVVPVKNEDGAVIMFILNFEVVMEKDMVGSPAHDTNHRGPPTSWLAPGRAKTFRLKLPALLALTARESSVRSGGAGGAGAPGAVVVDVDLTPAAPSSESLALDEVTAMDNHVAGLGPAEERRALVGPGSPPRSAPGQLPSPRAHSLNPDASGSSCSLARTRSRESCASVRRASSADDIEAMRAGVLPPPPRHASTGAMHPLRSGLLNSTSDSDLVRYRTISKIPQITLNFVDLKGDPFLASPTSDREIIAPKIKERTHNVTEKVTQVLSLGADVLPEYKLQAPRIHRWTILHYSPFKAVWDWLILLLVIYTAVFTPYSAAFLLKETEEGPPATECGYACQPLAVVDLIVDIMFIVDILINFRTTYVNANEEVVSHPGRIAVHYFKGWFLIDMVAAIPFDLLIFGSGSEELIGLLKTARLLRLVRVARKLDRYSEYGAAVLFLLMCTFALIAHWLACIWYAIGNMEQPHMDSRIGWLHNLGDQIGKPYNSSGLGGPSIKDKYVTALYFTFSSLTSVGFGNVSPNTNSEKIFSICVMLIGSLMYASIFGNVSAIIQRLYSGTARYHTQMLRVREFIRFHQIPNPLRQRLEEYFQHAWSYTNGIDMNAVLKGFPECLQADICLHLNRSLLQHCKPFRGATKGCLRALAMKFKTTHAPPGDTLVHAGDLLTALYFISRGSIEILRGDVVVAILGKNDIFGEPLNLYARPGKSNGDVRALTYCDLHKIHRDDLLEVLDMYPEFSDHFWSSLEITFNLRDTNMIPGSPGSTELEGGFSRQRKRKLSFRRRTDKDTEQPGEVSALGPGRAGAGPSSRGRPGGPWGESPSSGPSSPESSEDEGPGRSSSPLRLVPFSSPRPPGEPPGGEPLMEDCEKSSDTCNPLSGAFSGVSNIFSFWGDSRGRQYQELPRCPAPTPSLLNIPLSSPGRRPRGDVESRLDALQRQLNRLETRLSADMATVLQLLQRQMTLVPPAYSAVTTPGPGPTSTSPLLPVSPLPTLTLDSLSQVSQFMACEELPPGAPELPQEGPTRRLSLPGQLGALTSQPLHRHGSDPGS

## O=S(=O)(CC[C@@H]1OCC[C@@]2(S(=O)(=O)c3ccc(Cl)cc3)c3c(F)ccc(F)c3OC[C@@H]12)c1ncc[nH]1
[1]
  IC50: 1.8 nM
[2]
  IC50: 1.5 nM
[3]
  IC50: 1.4 nM

## CS(=O)(=O)CC[C@@H]1OCC[C@@]2(S(=O)(=O)c3cc(F)cc(F)c3)c3c(F)ccc(F)c3OC[C@@H]12
[3]
  IC50: 250 nM

## O=C(O)CS(=O)(=O)CC[C@@H]1OCC[C@@]2(S(=O)(=O)c3ccc(Cl)cc3)c3c(F)ccc(F)c3OC[C@@H]12
[4]
  inhibition in vivo at 10 mg/kg: 47%
[1]
  IC50: 22 nM
[2]
  IC50: 38 nM
[3]
  IC50: 2.7 nM
[5]
  Kp at 6 h: 0.1

## O=S(=O)(CCCO)CC[C@@H]1OCC[C@@]2(S(=O)(=O)c3ccc(Cl)cc3)c3c(F)ccc(F)c3OC[C@@H]12
[3]
  IC50: 4.5 nM

## CS(=O)(=O)CC[C@@H]1OCC[C@@]2(S(=O)(=O)c3ccc(F)c(F)c3)c3c(F)ccc(F)c3OC[C@@H]12
[1]
  IC50: 1.4 nM
[2]
  IC50: 14 nM
[3]
  IC50: 31 nM

## CS(=O)(=O)CC[C@@H]1OCC[C@@]2(S(=O)(=O)c3ccc(C(F)(F)F)cc3)c3c(F)ccc(F)c3OC[C@@H]12
[6]
  Vd: 6.1 L/kg
[7]
  Vd: 8.9 L/kg
[8]
  Vd: 6.6 L/kg
[9]
  clearance: 6.5 mL/min/kg
[10]
  clearance: 4.6 mL/min/kg
[11]
  clearance: 40 mL/min/kg
[12]
  bioavailability: 100%
[13]
  bioavailability: 44%
[14]
  bioavailability: 70%
[15]
  half-life: 17 h
[16]
  half-life: 17 h
[17]
  half-life: 3.6 h
[18]
  Tmax: 2.3 h
[19]
  Tmax: 5.3 h
[20]
  Tmax: 2 h
[21]
  Cmax: 1500 nM
[22]
  Cmax: 680 nM
[23]
  Cmax: 810 nM
[24]
  AUC(0-inf): 46 µM·h
[25]
  AUC(0-inf): 3.5 µM·h
[26]
  AUC(0-inf): 18 µM·h
[27]
  IC50: > 10000 nM
[28]
  inhibition at 10 µM: 31%
[29]
  IC50: 31 nM
[30]
  ED50: 7.4 mg/kg
[31]
  ED50: 2.8 mg/kg
[1]
  IC50: 3.5 nM
[2]
  IC50: 11 nM
[3]
  IC50: 15 nM
[32]
  ED50: 7.7 mg/kg
[33]
  ED50: 8 mg/kg
[34]
  ED50: 1.9 mg/kg

## O=S(=O)(CC[C@@H]1OCC[C@@]2(S(=O)(=O)c3ccc(Cl)cc3)c3c(F)ccc(F)c3OC[C@@H]12)c1ncn[nH]1
[4]
  inhibition in vivo at 10 mg/kg: 30%
[1]
  IC50: 4.7 nM
[2]
  IC50: 8.9 nM
[3]
  IC50: 2.1 nM

## CCS(=O)(=O)CC[C@@H]1OCC[C@@]2(S(=O)(=O)c3ccc(Cl)cc3)c3c(F)ccc(F)c3OC[C@@H]12
[1]
  IC50: 2 nM
[2]
  IC50: 5 nM
[3]
  IC50: 3 nM

## CC(C)S(=O)(=O)CC[C@@H]1OCC[C@@]2(S(=O)(=O)c3ccc(Cl)cc3)c3c(F)ccc(F)c3OC[C@@H]12
[1]
  IC50: 3 nM
[2]
  IC50: 8 nM
[3]
  IC50: 5.5 nM

## COc1ccc(S(=O)(=O)[C@@]23CCO[C@@H](CCS(C)(=O)=O)[C@@H]2COc2c(F)ccc(F)c23)cc1
[3]
  IC50: 360 nM

## CS(=O)(=O)CC[C@@H]1OCC[C@@]2(S(=O)(=O)c3ccc(C#N)cc3)c3c(F)ccc(F)c3OC[C@@H]12
[1]
  IC50: 8.9 nM
[2]
  IC50: 25 nM
[3]
  IC50: 66 nM

## O=S(=O)(CCO)CC[C@@H]1OCC[C@@]2(S(=O)(=O)c3ccc(Cl)cc3)c3c(F)ccc(F)c3OC[C@@H]12
[1]
  IC50: 0.9 nM
[2]
  IC50: 1.2 nM
[3]
  IC50: 1 nM
[5]
  Kp at 6 h: 0.1

## CS(=O)(=O)CC[C@@H]1OCC[C@@]2(S(=O)(=O)c3ccc(Cl)cc3)c3c(F)ccc(F)c3OC[C@@H]12
[35]
  Selectivity ratio: 19
[1]
  IC50: 1 nM
[2]
  IC50: 4 nM
[3]
  IC50: 1.3 nM

## O=S(=O)(CC[C@@H]1OCC[C@@]2(S(=O)(=O)c3ccc(Cl)cc3)c3c(F)ccc(F)c3OC[C@@H]12)c1cnn[nH]1
[1]
  IC50: 4.7 nM
[2]
  IC50: 13 nM
[3]
  IC50: 4.3 nM

## O=S(=O)(CC[C@@H]1OCC[C@@]2(S(=O)(=O)c3ccc(Cl)cc3)c3c(F)ccc(F)c3OC[C@@H]12)C(F)(F)F
[1]
  IC50: 4.4 nM
[2]
  IC50: 13 nM
[3]
  IC50: 7.4 nM

## CCCS(=O)(=O)CC[C@@H]1OCC[C@@]2(S(=O)(=O)c3ccc(Cl)cc3)c3c(F)ccc(F)c3OC[C@@H]12
[1]
  IC50: 5 nM
[2]
  IC50: 11 nM
[3]
  IC50: 6.8 nM

## CS(=O)(=O)CC[C@@H]1OCC[C@@]2(S(=O)(=O)c3ccc(Br)cc3)c3c(F)ccc(F)c3OC[C@@H]12
[1]
  IC50: 0.6 nM
[2]
  IC50: 2.5 nM
[3]
  IC50: 2.9 nM

## CS(=O)(=O)CC[C@@H]1OCC[C@@]2(S(=O)(=O)c3ccc(C#N)c(C#N)c3)c3c(F)ccc(F)c3OC[C@@H]12
[1]
  IC50: 120 nM
[2]
  IC50: 400 nM
[3]
  IC50: 580 nM

## O=S(=O)(CC[C@@H]1OCC[C@@]2(S(=O)(=O)c3ccc(Cl)cc3)c3c(F)ccc(F)c3OC[C@@H]12)CC(F)(F)F
[1]
  IC50: 6.4 nM
[2]
  IC50: 22 nM
[3]
  IC50: 7.3 nM

## CS(=O)(=O)CC[C@@H]1OCC[C@@]2(S(=O)(=O)c3ccc(OCC(F)(F)F)cc3)c3c(F)ccc(F)c3OC[C@@H]12
[3]
  IC50: 5100 nM

## O=S(=O)(CC[C@@H]1OCC[C@@]2(S(=O)(=O)c3ccc(Cl)cc3)c3c(F)ccc(F)c3OC[C@@H]12)C1CC1
[3]
  IC50: 2.1 nM
